Assay results taken from ChEMBL document CHEMBL1201862, “PubChem BioAssay data set” (2004).
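Compound exposure: 48 hours, 5 concentrations, 96-well plates. GI50 = concentration required for 50% inhibition of growth.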 The source made the active and inactive calls. No stated cut-off is given here; in the data, active = GI50 up to about 1.1 µM and inactive = higher. Where a SMILES comes first, the peptide text is derived from it.

Legend:
Assay in all cases: NCI tumour cell line growth inhibition, 48 h
LOX IMVI = tested on: LOX IMVI
KM12 = tested on: KM12
HL-60 = tested on: HL-60
HCT-15 = tested on: HCT-15
SF-539 = tested on: SF-539
SK-MEL-28 = tested on: SK-MEL-28
A549 = tested on: A549
SK-MEL-5 = tested on: SK-MEL-5
HCC 2998 = tested on: HCC 2998
HT-29 = tested on: HT-29
SW-620 = tested on: SW-620
HOP-92 = tested on: HOP-92
UACC-257 = tested on: UACC-257
MDA-MB-231 = tested on: MDA-MB-231
NCI/ADR-RES = tested on: NCI/ADR-RES
SF-295 = tested on: SF-295
DU-145 = tested on: DU-145
EKVX = tested on: EKVX
SK-MEL-2 = tested on: SK-MEL-2

Row | SMILES | GI50 (LOX IMVI) | GI50 (KM12) | GI50 (HL-60) | GI50 (HCT-15) [µM] | GI50 (SF-539) | GI50 (SK-MEL-28) | GI50 (A549) | GI50 (SK-MEL-5) | GI50 (HCC 2998) | GI50 (HT-29) | GI50 (SW-620) | GI50 (HOP-92) | GI50 (UACC-257) | GI50 (MDA-MB-231) | GI50 (NCI/ADR-RES) | GI50 (SF-295) | GI50 (DU-145) | GI50 (EKVX) | GI50 (SK-MEL-2)
1 | CCc1c(Cl)nc(Cl)nc1Cl | 0.0199 µM (active) | 1.08 µM (active) | 0.206 µM (active) | 0.0348 | 0.372 µM (active) | 1.63 µM (inactive) | 1.95 µM (inactive) | 0.224 µM (active) | 0.214 µM (active) | 0.121 µM (active) | 0.0449 µM (active) | 0.565 µM (active) | 0.448 µM (active) | 0.346 µM (active) | 0.382 µM (active) | 2.05 µM (inactive) | 2.05 µM (inactive) | 0.519 µM (active) | 
2 | COc1nc(SC)nc2c1C(O)n1c(nc3ccccc31)S2 (stereo unspecified) | 34.6 µM (inactive) | 25.4 µM (inactive) | 12.3 µM (inactive) | 33.5 |  | 9.16 µM (inactive) | 28.6 µM (inactive) |  | 6.79 µM (inactive) | 35.9 µM (inactive) | 9.14 µM (inactive) | 23.3 µM (inactive) | 59.6 µM (inactive) | 14.4 µM (inactive) | 10.5 µM (inactive) | 20.7 µM (inactive) | 53.7 µM (inactive) | 36.1 µM (inactive) | 28.9 µM (inactive)
3 | Cn1c(=O)oc2cc(Br)ccc21 | > 100 µM (inactive) | > 100 µM (inactive) | > 100 µM (inactive) | > 100 | > 100 µM (inactive) | > 100 µM (inactive) | > 100 µM (inactive) | > 100 µM (inactive) | > 100 µM (inactive) | > 100 µM (inactive) | > 100 µM (inactive) |  | > 100 µM (inactive) | > 100 µM (inactive) | > 100 µM (inactive) | > 100 µM (inactive) | > 100 µM (inactive) | 91.4 µM (inactive) | > 100 µM (inactive)
4 | Cc1cc2[nH]c3[nH]c(=O)[nH]c(=O)c3c2cc1C | > 100 µM (inactive) | > 100 µM (inactive) | > 10 µM (inactive) | > 100 | > 100 µM (inactive) |  | > 100 µM (inactive) | 47.1 µM (inactive) | > 100 µM (inactive) | > 100 µM (inactive) | > 100 µM (inactive) | > 100 µM (inactive) | > 100 µM (inactive) | 24.4 µM (inactive) | > 100 µM (inactive) | > 100 µM (inactive) | > 100 µM (inactive) | 20.3 µM (inactive) | 74.5 µM (inactive)
5 | CO/N=C(/C(=O)N(C(=O)/C(=N/OC)c1csc(NC(c2ccccc2)(c2ccccc2)c2ccccc2)n1)n1cnn(CC(=O)OC(C)(C)C)c1=O)c1csc(NC(c2ccccc2)(c2ccccc2)c2ccccc2)n1 | > 10 µM (inactive) | > 10 µM (inactive) | > 10 µM (inactive) | > 10 | > 10 µM (inactive) | > 10 µM (inactive) | > 10 µM (inactive) | > 10 µM (inactive) | > 10 µM (inactive) | > 10 µM (inactive) | > 10 µM (inactive) |  | > 10 µM (inactive) | > 10 µM (inactive) | > 10 µM (inactive) | > 10 µM (inactive) | > 10 µM (inactive) | > 10 µM (inactive) | 2.31 µM (inactive)
6 | c1csc(-c2cscc2-c2cccs2)c1 | 43.2 µM (inactive) | 22.3 µM (inactive) | 30.3 µM (inactive) | 35.8 | 20.3 µM (inactive) | > 100 µM (inactive) | 39.4 µM (inactive) | 46.8 µM (inactive) | 22.9 µM (inactive) | 91.4 µM (inactive) | 48.3 µM (inactive) | 78.5 µM (inactive) | 95.1 µM (inactive) | > 100 µM (inactive) | 42.9 µM (inactive) | 32.9 µM (inactive) | 1.31 µM (inactive) | 58.3 µM (inactive) | 
7 | CC(=O)OC1=C(CC(C)(C)C)C(=O)c2ccccc2C1=O | 47.5 µM (inactive) | 32.2 µM (inactive) | 16 µM (inactive) | 31.8 | 26.5 µM (inactive) | 42.4 µM (inactive) |  | 15.9 µM (inactive) | 40.2 µM (inactive) | 33.7 µM (inactive) | 33 µM (inactive) |  | 38.5 µM (inactive) | 87.7 µM (inactive) | 18.1 µM (inactive) | 22.7 µM (inactive) | 46.7 µM (inactive) | 37 µM (inactive) | 31.8 µM (inactive)
8 | CC(C)CC(NC(=O)C(Cc1ccccc1)NC(=O)C(Cc1c[nH]c2ccccc12)NC(=O)CNC(=O)C(N)Cc1ccc(O)cc1)C(=O)O (stereo unspecified) (H-YGWFL-OH; configuration not given here) |  | 24.6 µM (inactive) | 24.3 µM (inactive) | 69 | 33.8 µM (inactive) | 95.3 µM (inactive) | 37.4 µM (inactive) | 29 µM (inactive) | 34.3 µM (inactive) | 30.8 µM (inactive) |  | 14 µM (inactive) | 41.2 µM (inactive) | 52.1 µM (inactive) | 67.6 µM (inactive) | 49.7 µM (inactive) | 31.8 µM (inactive) | 35.2 µM (inactive) | 81.3 µM (inactive)
